Experimental data: ChEMBL document CHEMBL4184303, “Anti-inflammatory isoflavones and isoflavanones from the roots of Pongamia pinnata (L.) Pierre” (Bioorg Med Chem Lett, 2018)

Assays:
BV-2 [1] = experiment: Antiinflammatory activity in mouse BV2 cells assessed as inhibition of LPS-induced nitric oxide production; assay type: functional, cell-based
BV-2 [2] = experiment: Cytotoxicity against mouse BV2 cells at 50 uM by MTT assay; assay type: cell-based; conditions: bv-2, 50 µM

IC50 (BV-2 [1]) [µM] | SMILES | Activity (BV-2 [2])
> 50 | COc1cc(-c2coc3cc(O)ccc3c2=O)cc(OC)c1O | –
35.8 | COc1cc(O)c([C@@H]2COc3cc(O)ccc3C2=O)c(OC)c1OC | Non-Toxic
> 50 | COc1cc(-c2coc3c(CC=C(C)C)c(O)c(CC=C(C)C)c(O)c3c2=O)ccc1O [FLEMINGSIN] | –
> 50 | COc1ccc([C@@H]2COc3cc(O)ccc3C2=O)cc1 | –
9.5 | C[C@@H]1C[C@H]2[C@@H]3CCC4=CC(=O)C=C[C@]4(C)[C@@]3(F)[C@@H](O)C[C@]2(C)[C@@]1(O)C(=O)CO [DEXAMETHASONE] | –
45.2 | COc1ccc(-c2coc3cc(OCC=C(C)C)ccc3c2=O)cc1 | Non-Toxic
> 50 | COc1cc(-c2coc3cc(O)cc(O)c3c2=O)ccc1O [3'-O-METHYLOROBOL] | –
> 50 | COc1ccc(-c2coc3cc(OCC=C(C)C)cc(O)c3c2=O)cc1 | –
> 50 | COc1ccc([C@@H]2COc3cc(O)ccc3C2=O)c(OC)c1O [(3R)-VIOLANONE] | –
36.9 | COc1ccc(-c2coc3cc(OCC=C(C)C)ccc3c2=O)cc1OC | Non-Toxic
39.8 | COc1ccc([C@@H]2COc3cc(O)ccc3C2=O)c(O)c1 | Non-Toxic
> 50 | COc1ccc([C@@]2(O)COc3cc(OC)ccc3C2=O)c(O)c1 | –
> 50 | COc1ccc([C@@H]2COc3cc(O)ccc3C2=O)c(OC)c1 [(3R)-SATIVANONE] | –
35.7 | COc1ccc(-c2coc3c(OC)c(OCC=C(C)C)ccc3c2=O)cc1 | Non-Toxic
> 50 | COc1ccc(-c2coc3cc(OCC=C(C)C)cc(O)c3c2=O)cc1OC | –
39.8 | COc1cc(-c2coc3cc(O)ccc3c2=O)ccc1O | Non-Toxic
16.5 | COc1cc(O)c2c(=O)c(-c3cc(OC)c(O)c(O)c3CC=C(C)C)coc2c1 | Non-Toxic
> 50 | O=c1c(-c2ccc(O)cc2)coc2cc(O)ccc12 [DAIDZEIN] | –
> 50 | COc1cc(O)cc(-c2coc3cc(O)ccc3c2=O)c1 | –
26.3 | COc1ccc(-c2coc3cc(O)cc(O)c3c2=O)cc1O [PRATENSEIN] | Non-Toxic
28.4 | O=c1c(-c2ccc(O)cc2)coc2cc(O)cc(O)c12 [GENISTEIN] | Non-Toxic
46.6 | CC(C)=CCOc1ccc2c(=O)c(-c3ccc4c(c3)OCO4)coc2c1 | Non-Toxic
> 50 | COc1ccc(-c2coc3cc(O)ccc3c2=O)cc1 [FORMONONETIN] | –
> 50 | COc1cc(O)cc(-c2coc3cc(O)c(OC)cc3c2=O)c1 | –

SMILES | IC50 (BV-2 [1]) [µM] | Activity (BV-2 [2])
COc1cc(-c2coc3cc(O)ccc3c2=O)cc(O)c1-c1c(OC)cc([C@@H]2OO[C@@H]2CO)cc1OC | 19.7 | Non-Toxic
COc1ccc(-c2coc3c(-c4c(OC)cc([C@@H]5OO[C@@H]5CO)cc4OC)c(O)ccc3c2=O)cc1O | 9 | Non-Toxic
